# Experimental data: patent US20140220556A1, “Method of Design and Synthesis of a New Drug” (priority 2013, published 2014)
# Columns and labels:
# HeLa cells = experiment: Effect of Antican on HeLa cells; type: cell-based
# Source text: In establishing the minimum concentration of Antican that could slow the growth of cells, a comparison was made between the number of surviving cells and the concentration of Antican in the solution.
# [1] = system: Ehrlich's ascites adenocarcinoma; experiment: Antitumor activity in Ehrlich's ascites adenocarcinoma; type: in vivo, Barbados mice; settings: experimental animals, n = 10
# Procedure: The antitumor activity of the compositions were studied in models of Ehrlich's ascites carcinoma in young Barbados mice of both sexes with weights between 15-17 g (68 individuals), which were kept on a vivarium diet.
# 45 mice were inoculated from a mouse with adenocarcinoma using an insulin syringe with 0.1 mL ascitic fluid in the region of the liver.
# Ten mice were administered Antican (see Table 8).
# benzidine skin sarcoma = experiment: Anticancer activity on benzidine skin sarcoma; type: in vivo, Barbados mice
# Procedure: Before applying it to the silica gel, 7 mL of a solution of 2% benzidine and 0.9% sodium chloride were added until an opalescent suspension was formed (1 g silica gel for 5 mL NaCl solution). Twenty-five Barbados mice of both sexes with weight of 18-20 g that were kept on a vivarium diet were administered benzidine and phorbol acetate immobilized on silica gel subcutaneously near the neck. After two weeks, 18 animals had developed tumors of different sizes in the form of a small bump on the neck near the silica gel granulomas. Each group of animals was administered the corresponding compound parenterally, at a dose of 100 μg/kg weight, twice a day for two weeks, starting 16 days after administration of the carcinogen.
# [2] = FDA statistics, third stage of clinical tests; cited from earlier work
Structure (SMILES),"Number of Live Cells after Incubation, % (HeLa cells; dose 2 μg/mL)","Number of Live Cells after Incubation, ±1000 (HeLa cells; dose 2 μg/mL)","Number of Live Cells after Incubation, % (HeLa cells; dose 4 μg/mL)","Number of Live Cells after Incubation, ±1000 (HeLa cells; dose 4 μg/mL)","Number of Live Cells after Incubation, % (HeLa cells; dose 6 μg/mL)","Number of Live Cells after Incubation, ±1000 (HeLa cells; dose 6 μg/mL)","Number of Live Cells after Incubation, % (HeLa cells; dose 8 μg/mL)","Number of Live Cells after Incubation, ±1000 (HeLa cells; dose 8 μg/mL)","Number of Live Cells after Incubation, % (HeLa cells; dose 10 μg/mL)","Number of Live Cells after Incubation, ±1000 (HeLa cells; dose 10 μg/mL)","Number of Live Cells after Incubation, % (HeLa cells; dose 12 μg/mL)","Number of Live Cells after Incubation, ±1000 (HeLa cells; dose 12 μg/mL)","Time of Death of Animals after the First Injection, Average Value ([1]; Liposomes +)","Time of Death of Animals after the First Injection, Average Value ([1]; Liposomes −)","Weight of Animal, After Treatment (benzidine skin sarcoma; 100 μg/kg parenterally twice a day for two weeks, n = 7)","mice died (benzidine skin sarcoma; after treatment, n = 7)","Weight of Animal, Before Treatment (benzidine skin sarcoma; before treatment, n = 7)","Animal Survival (benzidine skin sarcoma; benzidine skin sarcoma, n = 10)",average effectiveness [2]
CC(=O)O[C@@]12CO[C@@H]1C[C@H](O)[C@@]1(C)C(=O)[C@H](O)C3=C(C)[C@@H](OC(=O)[C@H](O)[C@@H](NC(=O)OC(C)(C)C)c4ccccc4)C[C@@](O)([C@@H](OC(=O)c4ccccc4)[C@H]21)C3(C)C [Taxotere],100%,150000 Millions,98%,150000 Millions,97%,145000 Millions,89%,135000 Millions,82%,130000 Millions,94%,153000 Millions,15 ± 0.5 days,14 ± 0.12 days,23 ± 1.1 g,2,28 ± 1.2 g,28 ± 1.1 days,–
CN1CC[C@]23c4c5ccc(O)c4O[C@H]2[C@@H](O)C=C[C@H]3[C@H]1C5 [morphine],–,–,–,–,–,–,–,–,–,–,–,–,–,–,–,–,–,–,75%
